The text below walks through data of patent US20220411388A1, “SUBSTITUTED IMIDAZOLE CARBOXAMIDES AND THEIR USE IN THE TREATMENT OF MEDICAL DISORDERS” (Bial - R&D Investments, S.A., priority 2019, published 2022).

Data set [1] addresses T1, acid ceramidase (hACR) (Homo sapiens, UniProt Q13510).
T1 construct: expressed in transfected cells
T1 sequence (Q13510 22-395): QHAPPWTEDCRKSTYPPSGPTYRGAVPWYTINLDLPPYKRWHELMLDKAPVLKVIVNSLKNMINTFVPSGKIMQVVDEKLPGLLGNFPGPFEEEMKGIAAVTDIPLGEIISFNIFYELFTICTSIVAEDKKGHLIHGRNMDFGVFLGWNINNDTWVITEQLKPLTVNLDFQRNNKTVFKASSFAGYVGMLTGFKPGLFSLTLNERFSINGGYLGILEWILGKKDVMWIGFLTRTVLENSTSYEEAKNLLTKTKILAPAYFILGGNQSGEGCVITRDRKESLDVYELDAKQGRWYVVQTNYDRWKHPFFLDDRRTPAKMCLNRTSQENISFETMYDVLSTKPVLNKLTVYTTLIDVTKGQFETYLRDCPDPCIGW
As to the kind of experiment: Acid ceramidase inhibition, biochemical fluorescent assay with cell lysates overexpressing acid ceramidase (substrate Rbm14-12). The settings on record: cell lysate, 1 hr preincubation at RT, pH 4.5, Rbm14-12 6.3 μM; read-out: IC50 hACR. On the procedure: The ability of exemplary compounds to inhibit acid ceramidase was measured.
Cell lysates overexpressing acid ceramidase were used as the enzyme source for compound potency determination in a biochemical fluorescent assay. Briefly, compounds were preincubated with 10 μg protein of cell lysates in a dose-response manner for 1 hr at RT in the assay buffer containing 25 mM NaAC and 100 mM NaCl, pH 4.5. […] The samples were incubated with the stopping buffer at RT for 1 hr to allow the fluorescent product to be formed. […] Data were collected and used to determine the IC50 values of compounds by curve fitting to the four-parameter inhibition equation.

The nature of data set [2]: Compound solubility in water. The class given is physicochemical.

In brackets after ≈: the same amount, converted by molar mass.

For `COc1nccn1C(=O)NCCCC1(C(F)(F)F)CC1` [Example 137, 2-Methoxy-N-(3-(1-(trifluoromethyl)cyclopropyl)propyl)-1H-imidazole-1-carboxamide], the IC50 in data set [1] was less than 200 nM. The solubility in data set [2] turned out to be 29 µg/mL (≈ 99.6 µM).

Take `COc1nc(C2CCOC2)cn1C(=O)NCCC(C)C` (stereo not shown) [Example 85, N-iso-Pentyl-2-methoxy-4-(tetrahydrofuran-3-yl)-1H-imidazole-1-carboxamide]: the IC50 in data set [1] lay in the range of 200 to 1000 nM. The same compound registered a solubility in data set [2] of 28 µg/mL (≈ 99.5 µM).

In the case of `COc1nc(C)c(C)n1C(=O)NCCc1ccccc1` [Example 170, 2-Methoxy-4,5-dimethyl-N-phenethyl-1H-imidazole-1-carboxamide], in data set [1], the IC50 is less than 200 nM. In addition, the solubility in data set [2] was determined as 10 µg/mL (≈ 36.6 µM).

With `COc1nc(C)cn1C(=O)NCCCOC(F)(F)F` [Example 151, 2-Methoxy-4-methyl-N-(3-(trifluoromethoxy)-propyl)-1H-imidazole-1-carboxamide], the IC50 in data set [1] was 200 to 1000 nM. In data set [2], this compound returned a solubility of 30 µg/mL (≈ 107 µM).

With `CC(C)(C)CCNC(=O)n1cnc(-c2cccnc2)c1` [Example 45, N-(3,3-Dimethylbutyl)-4-(pyridin-3-yl)-1H-imidazole-1-carboxamide], the IC50 in data set [1] was in the range of 200 to 1000 nM. In data set [2], this compound had a solubility of 12.1 µg/mL (≈ 44.4 µM).

Consider `CC(C)CCNC(=O)n1cc(C(C)(C)C)nc1Oc1ccccc1F` [Example 115, 4-tert-Butyl-2-(2-fluorophenoxy)-N-iso-pentyl-1H-imidazole-1-carboxamide], for which the IC50 in data set [1] lay within 200 to 1000 nM. In data set [2], this compound had a solubility of 0.4 µg/mL (≈ 1.15 µM).

For `COc1nc(C2CCOC2)cn1C(=O)NC1CCCCC1` (stereo not shown) [Example 108, N-Cyclohexyl-2-methoxy-4-(tetrahydrofuran-3-yl)-1H-imidazole-1-carboxamide], the IC50 in data set [1] was more than 1000 nM. The amount in solution in data set [2] (solubility) came to 32 µg/mL (≈ 109 µM).

As for `O=C(NCCC1CC1)n1cnc(-c2cccnc2)c1` [Example 22, N-(2-Cyclopropylethyl)-4-(pyridin-3-yl)-1H-imidazole-1-carboxamide], the IC50 in data set [1] lay within 200 to 1000 nM. The compound further gave a solubility in data set [2] of 23 µg/mL (≈ 89.7 µM).

For the compound `COc1nc(C(C)(C)C#N)cn1C(=O)NCCC(C)C` [Example 81, 4-(2-Cyanopropan-2-yl)-N-iso-pentyl-2-methoxy-1H-imidazole-1-carboxamide], the 50% inhibitory concentration (IC50) in data set [1] is more than 1000 nM. In addition, the concentration in solution in data set [2] (solubility) came to 23 µg/mL (≈ 82.6 µM).

For the compound `COc1nccn1C(=O)NC1CCCCC1` [Example 120, N-Cyclohexyl-2-methoxy-1H-imidazole-1-carboxamide], in data set [1], the IC50 was more than 1000 nM. For the same compound, the solubility in data set [2] was determined as 14 µg/mL (≈ 62.7 µM).

As to `COc1nc(C)cn1C(=O)NCCCC1(C(F)(F)F)CC1` [Example 145, 2-Methoxy-4-methyl-N-(3-(1-(trifluoromethyl)cyclopropyl)propyl)-1H-imidazole-1-carboxamide], the IC50 in data set [1] was less than 200 nM. In data set [2], the concentration in solution (solubility) was 28 µg/mL (≈ 91.7 µM).

For `O=C(NCCc1ccccc1)n1cnc(-c2cccnc2)c1` [Example 5], in data set [1], the IC50 fell in the range of 200 to 1000 nM. The concentration in solution in data set [2] (solubility) was 16.2 µg/mL (≈ 55.4 µM).

On to `Cc1cn(C(=O)NCCc2ccccc2)c(OC(C)C)n1` [Example 149, 2-iso-Propoxy-4-methyl-N-phenethyl-1H-imidazole-1-carboxamide], for which the IC50 in data set [1] was less than 200 nM. Besides, the concentration in solution in data set [2] (solubility) came to 21 µg/mL (≈ 73.1 µM).

Turning to `COc1nc(C)cn1C(=O)NCCCn1ccc(C(C)(C)C)n1` [Example 179, N-(3-(3-(tert-Butyl)-1H-pyrazol-1-yl)propyl)-2-methoxy-4-methyl-1H-imidazole-1-carboxamide], the IC50 in data set [1] was less than 200 nM. In addition, the concentration in solution in data set [2] (solubility) was 22 µg/mL (≈ 68.9 µM).

On to `COc1nc(C)cn1C(=O)NCC#CCc1ccccc1` [Example 181, 2-Methoxy-4-methyl-N-(4-phenylbut-2-yn-1-yl)-1H-imidazole-1-carboxamide], for which the IC50 in data set [1] was less than 200 nM. The same compound came in with a solubility in data set [2] of 22 µg/mL (≈ 77.6 µM).

Turning to `O=C(NCCC1CC1)n1cnc(-c2ccccc2)c1` [Example 26, N-(2-Cyclopropylethyl)-4-phenyl-1H-imidazole-1-carboxamide], the IC50 in data set [1] lay within 200 to 1000 nM. In data set [2], the solubility was found to be 1.9 µg/mL (≈ 7.44 µM).

On to `Cc1cnc(OC(C)C)n1C(=O)NCCc1ccccc1` [Example 150, 2-iso-Propoxy-5-methyl-N-phenethyl-1H-imidazole-1-carboxamide], for which the IC50 in data set [1] is less than 200 nM. Besides, the solubility in data set [2] was determined as 5 µg/mL (≈ 17.4 µM).

For the compound `COc1nc(C)cn1C(=O)NCCCOc1ccccc1` [Example 144, 2-Methoxy-4-methyl-N-(3-phenoxypropyl)-1H-imidazole-1-carboxamide], the IC50 in data set [1] is less than 200 nM. This compound had a solubility in data set [2] of 26 µg/mL (≈ 89.9 µM).

Consider `Cc1cn(C(=O)NCCCC(F)(F)F)c(OCCN2CCN(C)CC2)n1` [Example 198, 4-Methyl-2-(2-(4-methylpiperazin-1-yl)ethoxy)-N-(4,4,4-trifluorobutyl)-1H-imidazole-1-carboxamide], for which the IC50 in data set [1] was in the range of 200 to 1000 nM. In addition, in data set [2], the concentration in solution (solubility) came to 38 µg/mL (≈ 101 µM).

`Cc1cn(C(=O)NCCOc2ccccc2)c(OCCN2CCN(C)CC2)n1` [Example 199, 4-Methyl-2-(2-(4-methylpiperazin-1-yl)ethoxy)-N-(2-phenoxyethyl)-1H-imidazole-1-carboxamide]: the IC50 in data set [1] is less than 200 nM. The amount in solution in data set [2] (solubility) came to 50 µg/mL (≈ 129 µM).

With `COc1nc(C2CCCC2)cn1C(=O)NC1CCCCC1` [Example 106, N-Cyclohexyl-4-cyclopentyl-2-methoxy-1H-imidazole-1-carboxamide], the IC50 in data set [1] is more than 1000 nM. Further, the solubility in data set [2] is 6 µg/mL (≈ 20.6 µM).

Regarding `COc1nc(C2CCOC2)cn1C(=O)NCCCCC1CC1` (stereo not shown) [Example 131, N-(4-Cyclopropylbutyl)-2-methoxy-4-(tetrahydrofuran-3-yl)-1H-imidazole-1-carboxamide], in data set [1], the IC50 was in the range of 200 to 1000 nM. Besides, the solubility in data set [2] turned out to be 23 µg/mL (≈ 74.8 µM).

As for `COc1nc(-c2cccnc2N2CCN(C)CC2)cn1C(=O)NCC#CC(C)C` [Example 194, 2-Methoxy-N-(4-methylpent-2-yn-1-yl)-4-(2-(4-methylpiperazin-1-yl)pyridin-3-yl)-1H-imidazole-1-carboxamide], the IC50 in data set [1] was more than 1000 nM. Moreover, the concentration in solution in data set [2] (solubility) was 45 µg/mL (≈ 113 µM).

`COCCOc1nc(C(C)(C)C)cn1C(=O)NCCC(C)C` [Example 117, 4-(tert-Butyl)-N-iso-pentyl-2-(2-methoxyethoxy)-1H-imidazole-1-carboxamide]: the IC50 in data set [1] is 200 to 1000 nM. Further, the concentration in solution in data set [2] (solubility) was 10 µg/mL (≈ 32.1 µM).

Consider `CC(C)(CNC(=O)n1cnc(-c2cccnc2)c1)c1ccccc1` [Example 13, N-(2-Methyl-2-phenylpropyl)-4-(pyridin-3-yl)-1H-imidazole-1-carboxamide], for which the IC50 in data set [1] is less than 200 nM. Also, the concentration in solution in data set [2] (solubility) came to 1.9 µg/mL (≈ 5.93 µM).

For `CC(C)(C)c1cn(C(=O)NCCc2cccnc2)cn1` [Example 20, 4-tert-Butyl-N-(2-(pyridin-3-yl)ethyl)-1H-imidazole-1-carboxamide], the IC50 in data set [1] was in the range of 200 to 1000 nM. This compound also displayed a solubility in data set [2] of 0.2 µg/mL (≈ 0.734 µM).

For the compound `CCOc1nc(-c2ccccn2)cn1C(=O)NCCC1CC1` [Example 63, N-(2-Cyclopropylethyl)-2-ethoxy-4-(pyridin-2-yl)-1H-imidazole-1-carboxamide], the IC50 in data set [1] is more than 1000 nM. The same compound returned a solubility in data set [2] of 24.1 µg/mL (≈ 80.2 µM).

As for `O=C(NCCC1CC1)n1cnc(-c2cccnc2N2CCC(N3CCOCC3)CC2)c1` [Example 54, N-(2-Cyclopropylethyl)-4-(2-(4-morpholinopiperidin-1-yl)pyridin-3-yl)-1H-imidazole-1-carboxamide], the IC50 in data set [1] was less than 200 nM. Also, the concentration in solution in data set [2] (solubility) came to 32.8 µg/mL (≈ 77.3 µM).

Consider `Cc1cn(C(=O)NC2CCC(F)(F)CC2)c(Oc2ccc(C#N)cc2)n1` [Example 163, 2-(4-Cyanophenoxy)-N-(4,4-difluorocyclohexyl)-4-methyl-1H-imidazole-1-carboxamide], for which the IC50 in data set [1] is less than 200 nM. For the same compound, the solubility in data set [2] is 13 µg/mL (≈ 36.1 µM).

On to `Cc1ccc(-c2cn(C(=O)NCCc3ccccc3)cn2)cn1` [Example 29, 4-(6-Methylpyridin-3-yl)-N-phenethyl-1H-imidazole-1-carboxamide], for which, in data set [1], the IC50 was less than 200 nM. The compound also gave a solubility in data set [2] of 3 µg/mL (≈ 9.79 µM).

Consider `COc1nc(C(C)(C)C)cn1C(=O)NCCCC1CC1` [Example 95, 4-(tert-Butyl)-N-(3-cyclopropylpropyl)-2-methoxy-1H-imidazole-1-carboxamide], for which the IC50 in data set [1] was less than 200 nM. Moreover, the concentration in solution in data set [2] (solubility) was 12 µg/mL (≈ 43 µM).

On to `COc1nc(C(C)(C)C)cn1C(=O)NCCCCC1CC1` [Example 97, 4-(tert-Butyl)-N-(4-cyclopropylbutyl)-2-methoxy-1H-imidazole-1-carboxamide], for which the IC50 in data set [1] is less than 200 nM. In data set [2], this compound gave a solubility of 3 µg/mL (≈ 10.2 µM).

As to `COc1nc(-c2ccccc2)cn1C(=O)NC1CC1` [Example 140, N-Cyclopropyl-2-methoxy-4-phenyl-1H-imidazole-1-carboxamide], the IC50 in data set [1] is more than 1000 nM. The concentration in solution in data set [2] (solubility) was 27 µg/mL (≈ 105 µM).

Consider `COc1ccc(-c2cn(C(=O)NCCC(C)C)cn2)cn1` [Example 36, N-iso-Pentyl-4-(6-methoxypyridin-3-yl)-1H-imidazole-1-carboxamide], for which the IC50 in data set [1] lay within 200 to 1000 nM. Besides, the solubility in data set [2] stood at 2.9 µg/mL (≈ 10.1 µM).

For the compound `COc1nc(C2CCCCC2)cn1C(=O)NCCC(C)C` [Example 109, 4-Cyclohexyl-N-iso-pentyl-2-methoxy-1H-imidazole-1-carboxamide], the IC50 in data set [1] fell in the range of 200 to 1000 nM. In data set [2], this compound had a solubility of 13 µg/mL (≈ 44.3 µM).
